Active and inactive are the calls of the source. The rule behind the calls is not given here.
Columns and labels:
[1] = test system: Plasmodium falciparum; experiment: Antimalarial activity against Plasmodium falciparum infected in mouse assessed as parasitemia at 20 mg/kg, ip, qd administered 4 days post infection for 3 days measured after 6 days (Rvb =8.7+/-1.4 %); assay type: functional
[2] = test system: Plasmodium falciparum; experiment: Antimalarial activity against Plasmodium falciparum infected in mouse assessed as mouse survival at 20 mg/kg, ip, qd administered 4 days post infection for 3 days measured after 6 days relative to control; assay type: functional, organism-based; parameters: dose 20 mg/kg
[3] = test system: Plasmodium falciparum; experiment: Antimalarial activity against Plasmodium falciparum infected in mouse assessed as parasitemia at 100 mg/kg, ip, qd administered 5 days post infection for 3 days measured after 6 days (Rvb =8.3+/-1.3 %); assay type: functional
[4] = test system: Plasmodium falciparum; experiment: Antimalarial activity against Plasmodium falciparum infected in mouse assessed as mouse survival at 20 mg/kg, ip, qd administered 5 days post infection for 3 days measured after 6 days relative to control; assay type: functional, organism-based; parameters: dose 20 mg/kg
[5] = test system: Plasmodium falciparum; experiment: Antimalarial activity against Plasmodium falciparum infected in mouse assessed as mouse survival at 100 mg/kg, ip, qd administered 5 days post infection for 3 days measured after 6 days relative to control; assay type: functional, organism-based; parameters: dose 100 mg/kg
[6] = test system: Plasmodium falciparum; experiment: Antimalarial activity against Plasmodium falciparum infected in mouse assessed as parasitemia at 20 mg/kg, ip, qd administered 5 days post infection for 3 days measured after 6 days (Rvb =8.3+/-1.3 %); assay type: functional
[7] = test system: Plasmodium falciparum; experiment: Antimalarial activity against Plasmodium falciparum infected in mouse assessed as mouse survival at 40 mg/kg, ip, qd administered 5 days post infection for 3 days measured after 6 days relative to control; assay type: functional, organism-based; parameters: dose 40 mg/kg
[8] = test system: Plasmodium falciparum; experiment: Antimalarial activity against Plasmodium falciparum infected in mouse assessed as parasitemia at 200 mg/kg, ip, qd administered 5 days post infection for 3 days measured after 6 days (Rvb =9.9+/-2.2 %); assay type: functional
[9] = test system: Plasmodium falciparum; experiment: Antimalarial activity against Plasmodium falciparum infected in mouse assessed as mouse survival at 200 mg/kg, ip, qd administered 5 days post infection for 3 days measured after 6 days relative to control; assay type: functional, organism-based; parameters: dose 200 mg/kg
[10] = test system: Plasmodium falciparum; experiment: Antimalarial activity against Plasmodium falciparum infected in mouse assessed as parasitemia at 40 mg/kg, ip, qd administered 5 days post infection for 3 days measured after 6 days (Rvb =9.9+/-2.2 %); assay type: functional
[11] = test system: Plasmodium falciparum; experiment: Antimalarial activity against Plasmodium falciparum infected in mouse assessed as parasitemia at 40 mg/kg, ip, qd administered 3 days post infection for 6 days measured after 6 days (Rvb =8.0+/-1.6 %); assay type: functional
[12] = test system: Plasmodium falciparum; experiment: Antimalarial activity against Plasmodium falciparum infected in mouse assessed as mouse survival at 40 mg/kg, ip, qd administered 3 days post infection for 6 days measured after 6 days relative to control; assay type: functional, organism-based; parameters: dose 40 mg/kg

What does the source list for `CC(C)c1c(C(=O)Nc2ccccc2)c(-c2ccccc2)c(-c2ccc(F)cc2)n1CC[C@@H](O)C[C@@H](O)CC(=O)O` [ATORVASTATIN]?
Activity [1]: 9.5%; Survival [2]: inactive

With `CC(C)n1c(/C=C/C(O)CC(O)CC(=O)O)c(-c2ccc(F)cc2)c2ccccc21` (configuration not stated) [FLUVASTATIN] as the compound, how does the Activity [3] read?
Its Activity is 7.4%.

And the Survival [4]?
The Survival was “inactive”.

What about the Survival [5] of the same compound?
The Survival was “inactive”.

What about the Activity [6] of the same compound?
Its Activity is 7.4%.

For `CC[C@H](C)C(=O)O[C@H]1C[C@H](O)C=C2C=C[C@H](C)[C@H](CC[C@@H](O)C[C@@H](O)CC(=O)O)[C@H]21` [PRAVASTATIN], which Survival [7] is on record?
Its Survival is “inactive”.

What about the Activity [8] of the same compound?
The Activity was 11.8%.

What about the Survival [9] of the same compound?
Its Survival is “inactive”.

And the Activity [10]?
The Activity was 11.5%.

What does the source list for `CCC(C)(C)C(=O)O[C@H]1C[C@@H](C)C=C2C=C[C@H](C)[C@H](CC[C@@H]3C[C@@H](O)CC(=O)O3)[C@H]21` [SIMVASTATIN]?
Activity [11]: 8.5%; Survival [12]: inactive

Reference: ChEMBL document CHEMBL1671634, “Statins alone are ineffective in cerebral malaria but potentiate artesunate” (2008)
